# Measurements as given in PubChem BioAssay (NCI).
#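 Where inhibition never reached the appropriate level, the endpoint shown equals the highest concentration tested. Otherwise, values were interpolated linearly from a five-concentration, 48-hour dose response in 96-well plates. TGI marks complete inhibition of growth.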
# Legend:
# Test in all cases: DTP human tumour cell line panel, 48 h
# EKVX NSCLC = system: EKVX NSCLC
# HT29 colon = system: HT29 colon
# T-47D breast = system: T-47D breast
# HOP-62 NSCLC = system: HOP-62 NSCLC
# SF-268 CNS = system: SF-268 CNS
# NCI-H522 lung = system: NCI-H522 lung
# COLO 205 colon = system: COLO 205 colon
# HCT-116 colon = system: HCT-116 colon
# SW-620 colon = system: SW-620 colon
# UO-31 renal = system: UO-31 renal
Structure (SMILES),TGI (EKVX NSCLC),TGI (HT29 colon),TGI (T-47D breast),TGI (HOP-62 NSCLC),TGI (SF-268 CNS),TGI (NCI-H522 lung),TGI (COLO 205 colon),TGI (HCT-116 colon),TGI (SW-620 colon),TGI (UO-31 renal)
C=C(CCC(C)C1CCC2C3=C(C(=O)CC21C)C1(C)CCC(=O)[C@@H](C)C1CC3=O)C(C)C(=O)O (stereo not given in full),> 100 µM,> 100 µM,> 100 µM,> 100 µM,> 100 µM,> 100 µM,> 100 µM,> 100 µM,> 100 µM,32.4 µM
CCNc1ccc2c(c1)Cc1ccccc1-2,> 100 µM,> 100 µM,> 100 µM,> 100 µM,> 100 µM,> 100 µM,> 100 µM,> 100 µM,> 100 µM,> 100 µM
COC1OC(Cc2nnc(C)o2)C(OCc2ccccc2)C(OCc2ccccc2)C1OCc1ccccc1 (stereo not given),35.5 µM,63.3 µM,> 100 µM,> 100 µM,46.3 µM,52.7 µM,44.1 µM,> 100 µM,> 100 µM,> 100 µM
COc1nc(N(C)C)nc2c1n(C)c[n+]2C,> 100 µM,> 100 µM,> 100 µM,> 100 µM,> 100 µM,> 100 µM,> 100 µM,> 100 µM,> 100 µM,> 100 µM
Cc1cc(C)c(P2C(=C(O[Si](C(C)C)(C(C)C)C(C)C)C(C)(C)C)C2(c2ccccc2)c2ccccc2)c(C)c1 (stereo not given),> 100 µM,> 100 µM,> 100 µM,> 100 µM,> 100 µM,> 100 µM,> 100 µM,> 100 µM,> 100 µM,> 100 µM
Nc1nc(-c2ccccc2N=NN2CCCC2)nc2ccccc12,23.8 µM,10.8 µM,19.4 µM,5.11 µM,21.5 µM,16.5 µM,10.4 µM,2.55 µM,5.96 µM,3.43 µM
CC[N+](C)(CC)CCC(O)(c1ccccc1)c1ccccc1,> 100 µM,> 100 µM,> 100 µM,> 100 µM,> 100 µM,> 100 µM,> 100 µM,> 100 µM,> 100 µM,> 100 µM
N#Cc1nc(CCCCCN2C(=O)c3ccccc3C2=O)oc1N,> 100 µM,> 100 µM,> 100 µM,> 100 µM,> 100 µM,75.2 µM,> 100 µM,> 100 µM,> 100 µM,> 100 µM
Cc1ccc(C(=O)O)c(CC2Cc3c(C)cccc3C2=O)c1 (stereo not given),> 100 µM,> 100 µM,> 100 µM,> 100 µM,> 100 µM,> 100 µM,> 100 µM,> 100 µM,> 100 µM,> 100 µM
CCOC(=O)c1c(CN2CCNCC2)nc2ccccc2c1-c1ccccc1,29.3 µM,17.8 µM,30 µM,31 µM,27.8 µM,29 µM,35.8 µM,23.7 µM,34.9 µM,21.7 µM
Cc1ccc(C2=NOC(=O)[C@@H]3CCCC[C@@H]23)cc1,> 100 µM,> 100 µM,> 100 µM,> 100 µM,> 100 µM,> 100 µM,> 100 µM,> 100 µM,> 100 µM,> 100 µM
Clc1ccc(Cc2nc3ccccc3nc2-c2cccc(Br)c2)cc1,28.9 µM,6.13 µM,4.54 µM,36.1 µM,44.9 µM,3.62 µM,12 µM,3.5 µM,4.49 µM,3.38 µM
CCOC(=O)C(NC(=O)N(C1=NCC(C)S1)C1CCCCC1)(OC)C(F)(F)F (stereo not given),> 100 µM,53 µM,> 100 µM,41.7 µM,> 100 µM,83.4 µM,50.8 µM,> 100 µM,> 100 µM,> 100 µM
O=[N+]([O-])c1ccc2nc(-c3ccccn3)c(-c3ccccn3)nc2c1,> 100 µM,> 100 µM,> 100 µM,> 100 µM,> 100 µM,> 100 µM,> 100 µM,> 100 µM,> 100 µM,> 100 µM
O=C1C=CC(=O)C(CNc2ccc(C(=O)OC34CC5CC(CC(C5)C3)C4)cc2)=C1,25.3 µM,24.6 µM,6.88 µM,17.1 µM,17.3 µM,2.28 µM,6.81 µM,22.5 µM,27.4 µM,16 µM
CO/C(=N\N=C\c1cccc(Cl)c1)c1ccncc1,> 10 µM,> 10 µM,> 10 µM,> 10 µM,> 10 µM,> 10 µM,> 10 µM,> 10 µM,> 10 µM,> 10 µM
c1ccc(CCNCc2ccco2)nc1,> 100 µM,> 100 µM,> 28.5 µM,> 100 µM,> 100 µM,> 100 µM,> 100 µM,> 100 µM,> 100 µM,> 100 µM
NC(=S)N/N=C\c1ccc(OCc2cccc(COc3ccc(/C=N/NC(N)=S)cc3)n2)cc1,> 100 µM,> 100 µM,0.921 µM,> 100 µM,> 100 µM,> 100 µM,> 100 µM,> 100 µM,> 100 µM,> 100 µM
CC(=O)O[C@@H]1C[C@@]23C[C@@]24CC[C@H](OC2OCC(O)C(O)C2O)C(C)(C)[C@@H]4CC=C3[C@]2(C)C[C@@H]3OC4(C[C@@H](C)[C@@H]3[C@@]12C)OC(O)[C@@]1(C)O[C@@H]41 (stereo not given in full),> 100 µM,> 100 µM,97.7 µM,78.3 µM,> 100 µM,89.4 µM,44 µM,49.7 µM,> 100 µM,> 100 µM
